Experimental data: patent publication US9180164B2, “Compounds and methods of modulating angiogenesis” (THE CLEVELAND CLINIC FOUNDATION, priority 2011, dated 2015)
Where two headings read alike, the source gives them in different places.

How the values were obtained:
[1] = tested on: mouse lung endothelial cells; settings: WT EC, vitronectin
Experimental: Transwell tissue culture inserts were coated with various integrin ligands for 24 h at 4° C. Both WT and DiYF lung endothelial cells were trypsinized and 1×10^5 cells were added into each well. The lower chamber contained varying concentrations of VEGF-A165 (0-20 ng/ml). Cells were allowed to migrate for 12 h and fixed with 3.7% formaldehyde/PBS for 15 min and stained with 0.5% crystal violet. The non-migrated cells adhered to the top surface were removed and three random 10× fields were photographed using Leica inverted phase contrast microscope.

[2] = tested on: HUVECs (Human Umbilical vascular endothelial cells); test: Tube formation assay on Matrigel with inhibitory peptide; type: cell-based; settings: 8 h
Experimental: The effect of αvβ3/VEGFR2 complex inhibiting peptides in accordance with the present invention on angiogenic function was assessed by tube formation assay on the basement membrane matrix preparation. […] Cells were washed twice with sterile PBS and seeded on Matrigel-coated plates in combination of presence/absence of VEGF and inhibitory peptide. Cells were further incubated at 37° C. for 8 h.

[3] = tested on: mouse lung endothelial cells; settings: 20 ng/ml VEGF, 8 h
Experimental: The formation of vascular tube-like structures by wild type and DiYF mouse lung endothelial cells were assessed on the basement membrane matrix preparation. Six well plates were coated with 0.5 ml of Matrigel according to the manufacturer's instructions. Wild type and DiYF mouse lung endothelial cells were detached from the tissue culture flasks using 20 mM EDTA. Cells were washed twice with sterile 1×PBS and seeded on Matrigel coated plate. Medium was supplemented with or without 20 ng/ml VEGF and further incubated at 37° C. for 8 h. The tube formation was observed using an inverted phase contrast microscope (Leica) and photographs were taken from each well. Using ImagePro software, the degree of tube formation was quantified by measuring the length of tubes in random fields.

[4] = tested on: αvβ3 integrin; test: WOW-1 binding assay, HUVECs; type: cell-based, Human; settings: FACS analysis
Experimental: Semiconfluent HUVECs were serum starved for 4 h and further stimulated with 20 ng/mL VEGF-A165 or VEGFDΔNΔC. WOW-1 Fab was added to a final concentration of 30 μg/mL, followed by addition of FITC-conjugated goat anti-mouse IgG at 10 μg/mL. After 30 min cells were fixed with 3.7% formaldehyde in PBS for 15 min, washed twice with PBS, and fluorescence-activated cell sorting (FACS) was performed using a FACS Calibur (Becton Dickinson, San Jose, Calif.) and data were analyzed using CellQuest software.

Substance: VEGF
- increase of migration compared to untreated EC ([1]; 5 ng/ml): 1.5 fold
- increase of migration compared to untreated EC ([1]; 10 ng/ml): 2.5 fold
- increase of migration compared to untreated EC ([1]; 20 ng/ml): 2.9 fold
- endothelial cell tube formation induced (length of tubes) [2]: at least 450 μm/mm^2
- effect on length of the tubes ([3]; DiYF EC): a little effect
- increase in the length of the tubes ([3]; WT EC): about 3 fold
- increase of WOW-1 binding to EC compared to resting cells [4]: 6 fold
